pIC50: −log10 of the molar value.

What is called pIC50 is the negative decadic logarithm of the IC50, by convention in mol/L. High values mean a small IC50, low ones a large IC50.

Assay [1] has as its target human A2a adenosine receptor (Homo sapiens (Human), UniProt P29274). The assay can be described thus: A2a receptor affinity radioligand binding assay ([3H] SCH58261). To be noted: membranes from HEK293 or CHO cells expressing human A2a receptor. The method, then: The A2a receptor affinity binding assay measured the amount of binding of a tritiated ligand with high affinity for the A2a adenosine receptor to membranes made from HEK293 or CHO cells recombinantly expressing the human A2a adenosine receptor, in the presence of varying concentrations of a compound of the invention.
Measurement of A2a Binding Affinity Using Radioligand Binding
148 μL (5 μg/mL) membranes (Perkin Elmer, Cat. No. RBHA2aM400UA) and 2 μL compounds of the invention to be tested (test compound) were transferred to individual wells of a 96-well polypropylene assay plate and incubated for 15 to 30 minutes at room temperature. [^3H] SCH58261 ((7-(2-phenylethyl)-5-amino-2-(2-furyl)-pyrazolo-[4,3-e]-1,2,4-triazolo[1,5-c]pyrimidine)) was diluted in assay buffer (50 mM Tris pH 7.4, 10 mM MgCl2, 0.005% Tween20) to a concentration of 4 nM and 50 μL transferred to each well of the assay plate. To define total and non-specific binding, wells containing 1% DMSO and 1 μM ZM241385 (Tocris Bioscience, Cat. No. 1036) respectively, were also included. The assay plate was incubated at room temperature for 60 minutes with agitation. Using a FilterMate Harvester® (Perkin Elmer), the contents of the assay plate were filtered through a UniFilter-96® PEI coated plate (Perkin Elmer Cat. No. 6005274 or 6005277). Filtering was achieved by aspirating the contents of the assay plate for 5 seconds, then washing and aspirating the contents three times with ice-cooled wash buffer (50 mM Tris-HCl pH 7.4, 150 mM NaCl) and allowing the vacuum manifold to dry the plate for 30 seconds. The filter plate was incubated for at least 1 hour at 55° C., and allowed to dry. The bottom of the filter plate was sealed with backing tape. 40 μL Ultima Gold™ (Perkin Elmer, Cat. No. 6013329) was added to each well of the filter plate and the top of the plate was sealed with TopSeal-A PLUS® clear plate seal (Perkin Elmer, Cat. No. 6050185). The plate was incubated for at least 20 minutes, and then the amount of radioactivity remaining in each well was determined using a TopCount® (Perkin Elmer) scintillation counter. After normalization to total and non-specific binding, the percent effect at each compound concentration was calculated. The plot of percent effect versus the log of compound concentration was analyzed electronically using a 4-parameter logistic fit based on the Levenberg-Marquardt algorithm to generate IC50 values.

Assay [2] addresses human A2b adenosine receptor (Homo sapiens (Human), UniProt P29275). In words: A2b radioligand filtration binding assay. To be noted: membranes from HEK293 cells expressing human A2b receptor. On the procedure:
Measurement of A2b Binding Affinity
The reported affinity of the compounds of the invention for the human A2b adenosine receptor was determined experimentally using a radioligand filtration binding assay. This assay measures the amount of binding of a tritiated proprietary A2b receptor antagonist, in the presence and absence of a compound of the invention, to membranes made from HEK293 cells recombinantly expressing the human A2b adenosine receptor (Perkin Elmer, Cat. No. ES-013-C).
148 μL (135 μg/mL) membranes and 2 μL test compounds were transferred to individual wells of a 96-well polypropylene assay plate and incubated for 15 to 30 minutes at room temperature with agitation. Tritiated radioligand was diluted to a concentration of 14 nM in assay buffer (phosphate buffered saline without Magnesium and Calcium, pH 7.4; GE Healthcare Life Sciences, Cat. No. SH30256.01) and then 50 μL of the solution were transferred to each well of the assay plate. To define total and non-specific binding, wells containing 1% DMSO and 20 μM N-ethylcarboxamidoadenosine (Tocris Bioscience, Cat. No. 1691) respectively, were also included. The wells of the assay plate were incubated at room temperature for 60 minutes with agitation, then filtered using a FilterMate Harvester® (Perkin Elmer) or similar equipment through a UniFilter-96® PEI coated plate (Perkin Elmer Cat. No. 6005274 or 6005277). Filtering was achieved by aspirating the contents of the assay plate for 5 seconds, then washing and aspirating the contents three times with ice-cooled wash buffer (assay buffer supplemented with 0.0025% Brij58) and allowing the vacuum manifold to dry the plate for 30 seconds. The filter plate was incubated for at least 1 hour at 55° C. and allowed to dry. The bottom of the filter plate was then sealed with backing tape. 40 μL Ultima Gold™ (Perkin Elmer, Cat. No. 6013329) was added to each well of the filter plate and the top of the plate was sealed with TopSeal-A PLUS® clear plate seal (Perkin Elmer, Cat. No. 6050185). The plates were then incubated for at least 20 minutes, and then the amount of radioactivity remaining in each well was determined using a TopCount® (Perkin Elmer) scintillation counter. After normalization to total and non-specific binding, the percent effect at each compound concentration was calculated. The plot of percent effect versus the log of compound concentration was analyzed electronically using a 4-parameter logistic fit based on the Levenberg-Marquardt algorithm to generate IC50 values.

Sequence of human A2b adenosine receptor (P29275 whole entry): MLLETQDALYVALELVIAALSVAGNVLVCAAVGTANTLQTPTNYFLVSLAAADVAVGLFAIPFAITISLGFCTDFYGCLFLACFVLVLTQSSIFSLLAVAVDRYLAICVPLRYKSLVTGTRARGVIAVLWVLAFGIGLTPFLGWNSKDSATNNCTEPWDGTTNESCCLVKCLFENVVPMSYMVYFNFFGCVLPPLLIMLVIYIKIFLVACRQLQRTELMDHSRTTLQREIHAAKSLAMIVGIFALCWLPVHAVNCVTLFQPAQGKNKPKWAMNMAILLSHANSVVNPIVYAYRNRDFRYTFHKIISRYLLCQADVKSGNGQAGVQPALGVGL
Sequence of human A2a adenosine receptor (P29274 whole entry): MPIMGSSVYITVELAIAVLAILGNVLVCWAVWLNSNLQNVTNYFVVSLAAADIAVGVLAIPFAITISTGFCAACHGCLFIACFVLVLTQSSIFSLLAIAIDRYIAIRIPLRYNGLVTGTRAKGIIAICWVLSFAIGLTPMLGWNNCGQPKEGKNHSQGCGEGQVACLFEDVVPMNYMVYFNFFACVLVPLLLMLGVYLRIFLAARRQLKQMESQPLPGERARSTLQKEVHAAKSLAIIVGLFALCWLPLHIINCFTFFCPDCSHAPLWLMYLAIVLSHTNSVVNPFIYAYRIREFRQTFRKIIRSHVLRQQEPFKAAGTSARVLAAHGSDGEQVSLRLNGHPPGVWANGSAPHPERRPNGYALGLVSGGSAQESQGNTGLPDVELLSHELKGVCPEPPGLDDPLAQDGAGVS

Consider `COc1cc(F)cc2c1nc(N)n1nc(C3CCCCN(c4cnn(CC(C)(C)O)c4)C3)nc21` (racemic) [Example 39, rac-1-(4-(3-(5-amino-9-fluoro-7-methoxy-[1,2,4]triazolo [1,5-c]quinazoln-2-yl)azepan-1-yl)-1H-pyrazol-1-yl)-2-methylpropan-2-ol], for which the figures for the pIC50 in assay [1] and in assay [2] were 8.96 and 7.36, respectively.

Regarding `COc1cc2nc(N)n3nc(C4CCCN(c5cnn(CC(C)(C)O)c5)C4=O)nc3c2cc1F` (racemic) [Example 139, rac-3-(5-amino-9-fluoro-8-methoxy-[1,2,4]triazolo[1,5-c]quinazolin-2-yl)-1-(1-(2-hydroxy-2-methylpropyl)-1H-pyrazol-4-yl)piperidin-2-one], the pIC50 in assay [1] is 7.77; in assay [2], 5.55.

With `COc1cc2nc(N)n3nc([C@@H]4CCCN(c5cnn(C(C)C(C)(C)O)c5)C4)nc3c2cc1F` (single isomer, unassigned) [Example 12, (S or R)-3-(4-((R)-3-(5-amino-9-fluoro-8-methoxy-[1,2,4]triazolo [1,5-c]quinazolin-2-yl)piperidin-1-yl)-1H-pyrazol-1-yl)-2-methylbutan-2-ol], the pIC50 in assay [1] is 8.77; in assay [2], 7.12.

As to `COc1cc2nc(N)n3nc([C@@H]4CCCN(c5cnn(C(C)C(C)(C)O)c5)C4)nc3c2cc1F` (single isomer, unassigned) [Example 13, (R or S)-3-(4-((R)-3-(5-amino-9-fluoro-8-methoxy-[1,2,4]triazolo[1,5-c]quinazolin-2-yl)piperidin-l-yl)-1H-pyrazol-1-yl)-2-methylbutan-2-ol], the results for the negative-log IC50 (pIC50) in assay [1] and in assay [2] were 9.15 and 7.14, respectively.

With `COc1cc2nc(N)n3nc(C4CCC(C)N(c5cnn(CC(C)(C)O)c5C)C4)nc3c2cc1F` (single isomer, unassigned) [Example 41, 1-(4-((2S,5R or 2R,5S)-5-(5-amino-9-fluoro-8-methoxy-[1,2,4]triazolo[1,5-c]quinazolin-2-yl)-2-methylpiperidin-1-yl)-5-methyl-1H-pyrazol-1-yl)-2-methylpropan-2-ol], the negative-log IC50 (pIC50) in assay [1] was 8.92; in assay [2] it was 7.37.

For `COc1cc2nc(N)n3nc(C4CCC(C)N(c5cn(CC(C)(C)O)nc5C)C4)nc3c2cc1F` (single isomer, unassigned) [Example 42, 1-(4-((2S,5R or 2R,5S)-5-(5-amino-9-fluoro-8-methoxy-[1,2,4]triazolo[1,5-c]quinazolin-2-yl)-2-methylpiperidin-1-yl)-3-methyl-1H-pyrazol-1-yl)-2-methylpropan-2-ol], the pIC50 in assay [1] was 8.37; in assay [2], 6.32.

On to `COc1cc2nc(N)n3nc(C4CCC(C)N(c5cnn(C(C)(C)C(C)(C)O)c5)C4)nc3c2cc1F` (single isomer, unassigned) [Example 43, 3-(4-((2S,5R or 2R,5S)-5-(5-amino-9-fluoro-8-methoxy-[1,2,4]triazolo[1,5-c]quinazolin-2-yl)-2-methylpiperidin-1-yl)-1H-pyrazol-1-yl)-2,3-dimethylbutan-2-ol], for which the pIC50 was 9.15 in assay [1] and 8.47 in assay [2].

As for `COc1cc2nc(N)n3nc(C4CCC(C)N(c5cnn(C6CCOCC6)c5)C4)nc3c2cc1F` (single isomer, unassigned) [Example 44, 9-fluoro-8-methoxy-2-((3R,6S or 3S,6R)-6-methyl-1-(1-(tetrahydro-2H-pyran-4-yl)-1H-pyrazol-4-yl)piperidin-3-yl)-[1,2,4]triazolo[1,5-c]quinazolin-5-amine], the pIC50 in assay [1] was 8.89; in assay [2], 7.69.

In the case of `COc1cc2nc(N)n3nc(C4CCC(C)N(c5cnn(C6CCOCC6)c5C)C4)nc3c2cc1F` (single isomer, unassigned) [Example 45, 9-fluoro-8-methoxy-2-((3R,6S or 3S,6R)-6-methyl-1-(5-methyl-1-(tetrahydro-2H-pyran-4-yl)-1H-pyrazol-4-yl)piperidin-3-yl)-[1,2,4]triazolo[1,5-c]quinazolin-5-amine], the figures for the pIC50 in assay [1] and in assay [2] were 8.74 and 6.82, respectively.

As to `COc1cc2nc(N)n3nc(C4CCC(C)N(c5cn(C6CCOCC6)nc5C)C4)nc3c2cc1F` (single isomer, unassigned) [Example 46, 9-fluoro-8-methoxy-24(3R,6S or 3S,6R)-6-methyl-1-(3-methyl-1-(tetrahydro-2H-pyran-4-yl)-1H-pyrazol-4-yl)piperidin-3-yl) [1,2,4]triazolo[1,5-c]quinazolin-5-amine], the results for the pIC50 in assay [1] and in assay [2] were 9.22 and 7.06, respectively.

With `COc1cc2nc(N)n3nc(C4CCC(C)N(c5cnn(CC6(CF)COC6)c5)C4)nc3c2cc1F` (single isomer, unassigned) [Example 47, 9-fluor-2-((3R,6S or 3S,6R)-1-(1((3-(fluoromethyl)oxetan-3-yl)methyl)-1H-pyrazol-4-yl)-6-methylpiperidin-3-yl)-8-methoxy-[1,2,4]triazolo[1,5-c]quinazolin-5-amine], the pIC50 in assay [1] was 8.09; in assay [2] it was 6.55.

Regarding `COc1cc2nc(N)n3nc([C@@H]4CC[C@H](C)N(c5cnn(C(C)C(C)(C)O)c5)C4)nc3c2cc1F` (single isomer, unassigned) [Example 48, (R or S)-3-(4-((2S,5R or 2R,5S)-5-(5-amino-9-fluoro-8-methoxy-[1,2,4]triazolo[1,5-c]quinazolin-2-yl)-2-methylpiperidin-1-yl)-1H-pyrazol-1-yl)-2-methylbutan-2-ol], the pIC50 in assay [1] is 9.22; in assay [2] it was 7.75.

For the compound `COc1cc2nc(N)n3nc([C@@H]4CC[C@H](C)N(c5cnn([C@@H](C)C(C)(C)O)c5)C4)nc3c2cc1F` (single isomer, unassigned) [Example 49, (S or R)-3-(4-((2S,5R or 2R,5S)-5-(5-amino-9-fluoro-8-methoxy-[1,2,4]triazolo[1,5-c]quinazolin-2-yl)-2-methylpiperidin-1-yl)-1H-pyrazol-1-yl)-2-methylbutan-2-ol], the pIC50 was 9.52 in assay [1] and 8.57 in assay [2].

Take `COc1cc2nc(N)n3nc([C@H]4CC[C@@H](C)N(c5cn(CC6(O)CCC6)nc5C)C4)nc3c2cc1F` (single isomer, unassigned) [Example 50, 1-((4-((2R,5S or 2S,5R)-5-(5-amino-9-fluoro-8-methoxy-[1,2,4]triazolo[1,5-c]quinazolin-2-yl)-2-methylpiperidin-1-yl)-3-methyl-1H-pyrazol-1-yl)methyl)cyclobutan-1-ol]: the results for the pIC50 in assay [1] and in assay [2] were 7.74 and 5.72, respectively.

Regarding `COc1cc2nc(N)n3nc([C@H]4CC[C@@H](C)N(c5cnn(CC6(O)CCC6)c5C)C4)nc3c2cc1F` (single isomer, unassigned) [Example 51, 1-((4-((2R,5S or 2S,5R)-5-(5-amino-9-fluoro-8-methoxy-[1,2,4]triazolo[1,5-c]quinazolin-2-yl)-2-methylpiperidin-1-yl)-5-methyl-1H-pyrazol-1-yl)methyl)cyclobutan-1-ol], the pIC50 in assay [1] was 7.68; in assay [2], 5.68.

Source of the values: patent US11312719B2, “9-substituted amino triazolo quinazoline derivatives as adenosine receptor antagonists, pharmaceutical compositions and their use” (Merck Sharp & Dohme Corp., priority 2018, dated 2022).
